The record followed here is ChEMBL document CHEMBL4419180, “Compositions and methods for treating g protein coupled receptor mediated conditions” (2018).

The source made the active and inactive calls. No cut-off for these calls is given here. Non-standard residues stand in square brackets, D forms with d. Residues, ends and D or L forms follow the SMILES beside them. *: point of attachment. Boc = CC(C)(C)OC(=O)*; OBn = c1ccc(CO*)cc1; For = O=C*

For experiment [1], the target named is Mas-related G-protein coupled receptor member X4 (Homo sapiens) (UniProt Q96LA9). Kind of experiment: Antagonist activity at recombinant human MrgprX4 expressed in HEK293 cells assessed as blockade of bilirubin-induced inositol phosphate accumulation incubated for 1 hr at 37 degC followed by incubation for 30 mins at room temperature before bilirubin addition by HTRF assay relative to control. It counts as functional, cell-based.
Chain of Mas-related G-protein coupled receptor member X4 (Homo sapiens) (Q96LA9 whole entry): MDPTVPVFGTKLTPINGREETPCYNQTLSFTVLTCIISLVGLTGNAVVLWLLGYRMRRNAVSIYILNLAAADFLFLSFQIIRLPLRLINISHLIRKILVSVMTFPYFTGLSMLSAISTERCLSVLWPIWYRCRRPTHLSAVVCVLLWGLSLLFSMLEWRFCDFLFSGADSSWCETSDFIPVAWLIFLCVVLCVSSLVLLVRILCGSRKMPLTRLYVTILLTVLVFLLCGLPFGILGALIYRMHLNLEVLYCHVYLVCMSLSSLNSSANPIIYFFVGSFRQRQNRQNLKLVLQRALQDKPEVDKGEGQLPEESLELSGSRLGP

Experiment [2] shares this target. Kind of experiment: Inverse agonist activity at recombinant human MrgprX4 expressed in HEK293 cells assessed as reduction in inositol phosphate accumulation incubated for 1 hr at 37 degC followed by incubation for 30 mins at room temperature by HTRF assay relative to baseline. It counts as functional, cell-based.
Experiment [3] concerns Mus musculus. Kind of experiment: Suppression of ANIT-induced cholestatic liver injury in mouse assessed as effect on ALT level at 1 mg/kg, ip. It counts as functional, organism-based.
Experiment [4] relates to Mus musculus. Kind of experiment: Suppression of chloroquine-induced pruritus in mouse assessed as reduction in scratching bouts in 30 mins at 1 mg/kg co-injected with chloroquine. The class given is functional, organism-based.
Experiment [5] relates to Mus musculus. Kind of experiment: Suppression of ANIT-induced cholestatic liver injury in mouse assessed as effect on ALP level at 1 mg/kg, ip. The class given is functional, organism-based.
Experiment [6] relates to Mus musculus. Kind of experiment: Suppression of ANIT-induced cholestatic liver injury in mouse assessed as effect on AST level at 1 mg/kg, ip. The class given is functional, organism-based.
Experiment [7] relates to Mus musculus. Kind of experiment: Suppression of ANIT-induced cholestatic pruritus in mouse assessed as reduction in scratching bouts in 30 mins at 1 mg/kg, ip 30 mins before behavioral analysis. The class given is functional, organism-based.
Experiment [8] relates to Mus musculus. Kind of experiment: Suppression of ANIT-induced cholestatic liver injury in mouse assessed as effect on total bilirubin at 1 mg/kg, ip. The class given is functional, organism-based.
For experiment [9], the system named is Mus musculus. Kind of experiment: Suppression of bilirubin-induced pruritus in mouse assessed as reduction in scratching bouts in 30 mins at 0.25 mg/kg co-injected with bilirubin. The class given is functional, organism-based.

On to `Nc1nc2ccccc2n1CCOc1ccccc1Cl`, for which the inhibition in experiment [1] lay within 70 to 85%. In experiment [2], the fold change (FC) fell in the range of 2 to 3.

With `Cc1c(C(=O)NCc2ccccc2C(F)(F)F)ncn1Cc1ccc(Cl)cc1`, the inhibition in experiment [1] came to 85%. For the same compound, the fold change (FC) in experiment [2] amounted to 3.

For the compound `Cc1nc(-c2ccnn2Cc2ccc(Cl)cc2)[nH]c1-c1ccccc1`, in experiment [1], the inhibition was found to be 85%. Besides, the fold change (FC) in experiment [2] was 3.

As to `CC(C)(C)OC(=O)N[C@@H](CCC(N)=O)C(=O)N[C@H](Cc1cn(C=O)c2ccccc12)C(=O)N[C@@H](Cc1ccccc1)C(=O)OCc1ccccc1` (Boc-Gln-[dW](For)-Phe-OBn), the result with Mus musculus [3], in the experiment with Mus musculus [4], with Mus musculus [5], with Mus musculus [6] and in the experiment on Mus musculus [8] was inactive. The result in the experiment with Mus musculus [7] and in the experiment on Mus musculus [9] was Active.

Turning to `O=C(NCc1cc2ccccc2[nH]1)c1cc(-c2ccccn2)nc2ccc(Br)cc12`, the inhibition in experiment [1] was found to be 85%. Besides, the fold change (FC) in [2] was 2 to 3.
